The values below come from paper PMC8032764 (Scientific Reports, 2021).

One data set relates to T1, Dopamine D1.
T1 construct: host or cells: CHO
In words: Cerep binding. Also on record: species or system human. Conditions: 10 μM; [3H]SCH 23390; hum. recomb. (CHO).

For another data set, the system named is T2, Muscarinic M3.
T2 construct: host or cells: CHO
In words: Cerep binding. Also on record: species or system human. Conditions: 10 μM; [3H]4-DAMP; hum. recomb. (CHO).

A further data set has as its system T3, Muscarinic M5.
T3 construct: host or cells: CHO
In words: Cerep binding. Also on record: species or system human. Conditions: 10 μM; [3H]4-DAMP; hum. recomb. (CHO).

The test system of data set [1] is T4, Prostanoid TP (TXA2/PGH2).
T4 construct: host or cells: HEK-293
In words: Cerep binding. Also on record: species or system human. Conditions: 10 μM; [3H]SQ 29548; hum. recomb. (HEK-293).

The subject of another data set is T5, Prostanoid IP (PGI2).
T5 construct: host or cells: HEK-293
In words: Cerep binding. Also on record: species or system human. Conditions: 10 μM; [3H]iloprost; hum. recomb. (HEK-293).

A further data set deals with T6, Cholecystokinin CCK2.
T6 construct: purchased Eurofins Cerep
In words: Cerep binding. Also on record: species or system human. Conditions: 10 μM; [125I]CCK-8s; hum. recomb. (CHO).

For the next data set, the system named is T7, Galanin 1.
T7 construct: purchased Eurofins Cerep
The data set can be described thus: Cerep binding. Conditions: 10 μM; [125I]galanin; hum. recomb. (HEK-293). Also on record: species or system human.

The test system of a further data set is T8, Melanocortin MC4.
T8 construct: purchased Eurofins Cerep
The data set can be described thus: Cerep binding. Also on record: species or system human. Conditions: 10 μM; [125I]NDP-α-MSH; hum. recomb. (CHO).

The subject of data set [2] is Somatostatin (non-selective). In words: Cerep binding. Conditions: 10 μM; [125I]Tyr11-somatostatin-14; mouse, AtT-20 cells.
The next data set has as its system T9, Glucocorticoid.
T9 construct: hum., IM-9 cells,; host or cells: IM-9 cells, cytosol
The data set can be described thus: Cerep binding. Conditions: 10 μM; [3H]dexamethasone; hum., IM-9 cells, cytosol. Also on record: species or system human.

Data set [3] can be described thus: Plasma levels, parallel dose groups of water maze. Conditions: 10 mg/kg p.o., 30 min. The class given is in vivo, rat. Here is the method:
Plasma samples were collected and frozen at − 80 °C for later analysis.
The calibration range was from 1.0 to 5000 ng/mL. After protein precipitation with ethanol, the sample solution was injected onto a Gemini C18 trapping column (2 × 10 mm; Phenomenex, Torrance, CA, USA) and polar endogenous compounds and salts were rinsed off. Analytical separation was performed on an Atlantis T3 column (2.1 × 50 mm) (Waters, Milford, MA, USA), using methanol/water containing 0.1% formic acid as mobile phase. A drug analogue was used as an internal standard.

The subject of the next data set is Wistar rats. The data set can be described thus: Pentylenetetrazole (PTZ) test. It counts as in vivo, rat. The method, then:
PTZ was prepared in 0.9% saline and was administered s.c. in a volume of 1 mL/kg. The positive control FG7142, a non-selective GABAA receptor NAM, was prepared in 0.3% Tween 80 v/v saline and was administered i.p. in a volume of 1 mL/kg. […] During this period the number of rats showing tonic convulsions was noted.
FG7142 was administered at 10 mg/kg 30 min prior to PTZ. The percent of rats in each dose group showing tonic convulsions was compared to the control group by the Pearson Chi-Square test.

Data set [4] is described as follows: Plasma exposure in EEG study. The class given is in vivo. Conditions: human, oral, 240 mg twice daily, mean ± SD.
For the next data set, the system named is GABAA-α5 receptors. The data set can be described thus: Receptor occupancy estimated from free plasma concentrations, object retrieval. It counts as in vivo, Macaca fascicularis. An excerpt: Free plasma concentrations were used to estimate receptor occupancy.
For the next data set, the system named is rats. The data set can be described thus: GLP toxicology and safety pharmacology, daily oral administration. Conditions: supra-therapeutic plasma exposures, up to 26 weeks. It counts as in vivo, rat.
A further data set has as its system dogs. The data set is described as above. The class given is in vivo, dog.

Take `Cc1onc(-c2ccc(F)cc2)c1COc1ccc(C(=O)N2CCS(=O)(=O)CC2)cn1` [basmisanil]: the % Inhibition (as a rule, the drop in the measured response relative to a control, in per cent) in the data set on Dopamine D1 is 0%; with Muscarinic M3, 4%; with Muscarinic M5, -7%; in data set [1], 5%; in the data set on Prostanoid IP (PGI2), -1%; in the data set on Cholecystokinin CCK2, -21%. The “% Inhibition” value is 0% in the data set with Galanin 1, 9% in the data set with Melanocortin MC4, 18% in data set [2] and -2% in the data set with Glucocorticoid. In data set [3], the maximal plasma level is 903 ± 13 ng/mL. The proconvulsant activity result is on record as “did not exert proconvulsant activity” with Wistar rats (female rats, 30 mg/kg, 2 h prior to PTZ 70 mg/kg) and “did not exert proconvulsant activity” with Wistar rats (male rats, single doses up to 100 mg/kg, 1 h prior to PTZ 55 mg/kg). The “rats exhibiting tonic convulsions” value in the data set on Wistar rats (female rats, 100 mg/kg, threshold dose of PTZ, p < 0.05) is given as “five out of eight”. In addition, the “rats exhibiting tonic convulsions, compared with 100 mg/kg” value in the data set with Wistar rats (female rats, 300 and 600 mg/kg, p < 0.05) is on record as “identical effects”. The same molecule yielded a concentration at 1 h in [4] (day 14, 1 h post morning dose) of 3280 ± 888 ng/mL. This molecule also had a concentration at 4 h in data set [4] (day 14, 4 h post morning dose) of 4030 ± 842 ng/mL. Also, the figures for the estimated receptor occupancy result with GABAA-α5 receptors (3 mg/kg p.o.) and in the data set on GABAA-α5 receptors (10 mg/kg p.o.) were “about 30%” and “around 50%”, respectively. For the same molecule, the “convulsions and EEG alterations” value in the data set with rats is “no convulsions and no EEG alterations”; in the data set on dogs (daily oral, supra-therapeutic plasma exposures, up to 39 weeks) it was “no convulsions and no EEG alterations”. Besides, in the data set with dogs (GLP toxicology studies in dogs), the “exposures with lack of clinical signs and convulsion symptoms” value is on record as “up to 4590 ng/mL”.
